Measured values taken from patent EP4740950A1, “PROPHYLACTIC OR AMELIORATING AGENT FOR CACHEXIA” (The University of Osaka, priority 2023, dated 2025).

Experiments:
myoblasts (C2C12) = assay: in vitro differentiation induction of myoblasts (C2C12) into skeletal muscle cells in medium containing Colon26 culture supernatant (myotube formation); format: cell-based, Mouse; settings: Colon26 cells treated at 25 µM for 24 hours; 50% supernatant in horse serum-supplemented DMEM; C2C12 observed on day 9, phase-contrast microscope
Description: Mouse myoblasts (C2C12, RIKEN cell bank) and mouse colon cancer cells (Colon26, RIKEN cell bank) were used. The culture medium used was DMEM medium (Sigma-Aldrich Japan) or RPMI medium (Sigma-Aldrich Japan) supplemented with 10% fetal bovine serum (Gibco), 100 units/mL penicillin G (Sigma-Aldrich Japan) and 100 µg/mL streptomycin (Sigma-Aldrich Japan).
(§1) Colon26 cells were seeded at a concentration of 5 × 10^4 cells/cm^2 in a culture dish with a diameter of 10 mm, and cultured at 37°C, 5% CO2 to 80% to 90% confluency. The medium was then changed to a medium supplemented with 16:0 lysophosphatidylcholine (hereinafter referred to as LPC), 18:0 LPC, 16:0 phosphatidylcholine (hereinafter referred to as PC), or 18:0 PC (all manufactured by Avanti Polar Lipids) at a final concentration of 25 µM, or a medium not containing LPC or PC. The cells were cultured for another 24 hours. After the cells were washed with PBS, the medium was changed to serum-free RPMI medium, and the cells were cultured for another 48 hours. The medium was collected and centrifuged at 4°C and 3000 rpm for 20 minutes to precipitate the cellular components. The supernatant was sterile-filtered using a 0.22 µm sterile filter (Merck Millipore) and stored at -80°C until use.
C2C12 cells were cultured to 80% to 90% confluency in a 6-well culture plate. The medium was changed to DMEM medium supplemented with horse serum (Gibco, final concentration: 2%) or horse serum-supplemented DMEM medium containing 50% supernatant of one of the five types prepared in the above (2), and the cells were cultured for 9 days to induce differentiation into skeletal muscle cells. On day 9, the morphology of the cells was observed under a phase-contrast microscope.

Mesenchymal OP9 cells = assay: in vitro differentiation induction of mesenchymal cells (OP9) into adipocytes in medium containing Colon26 culture supernatant (Oil Red O staining); format: cell-based; settings: Colon26 cells treated at 25 µM; 10% supernatant in adipocyte differentiation medium; OP9 observed on day 7
Description: as §1
Mesenchymal OP9 cells (RIKEN cell bank) were used. The culture medium used was MEM medium (Sigma-Aldrich Japan) supplemented with 20% fetal bovine serum (Gibco), 100 units/mL penicillin G (Sigma-Aldrich Japan), 100 µg/mL streptomycin (Sigma-Aldrich Japan), and 2 mM L-glutamine.
OP9 cells were seeded at a concentration of 7 × 10^3 cells/cm^2 in a 96-well culture plate and cultured to confluency. […]

[1] = tested on: tumor-bearing mice (Colon26); assay: muscle weight in Colon26 tumor-bearing mice, intravenous PC; format: in vivo; settings: 3 mg/kg via the tail vein every 3 or 4 days from one week after transplantation; day 36 post-transplantation
Description: (§2) Male BalB/c mice (SLC) at 8 to 9 weeks old were used. Colon26 cells were cultured to 80% to 90% confluency in the same manner as in Example 1 and suspended in PBS to a concentration of 1 × 10^6 cells/mL. Then, 100 µL of the cell suspension was subcutaneously transplanted into the right upper flank of the mice. Every 3 or 4 days, the body weight of the mice was measured, and the general conditions of the mice were observed. The tumor size [1/2(a × b^2) mm^3] was calculated by measuring the maximum diameter (a) and the minimum diameter (b) of the tumor.
(§3) Hydrogenated PC (HSPC; Avanti Polar Lipids) was dissolved in ethanol to a concentration of 50 mM and stored at -20°C until use.
(§4) We set up three groups of mice: a non-cancer cell transplantation group (control), a cancer cell transplantation group with administration of a solvent (PBS), and a cancer cell transplantation group with administration of PC (PC). […]
(§5) The mice were euthanized on day 36 post-transplantation of Colon26 cells, and the gastrocnemius and tibialis muscles were harvested to measure the weight. Twenty milligrams of each muscle tissue was homogenized using High Power Homogenizer ASG50 (AS ONE Corporation), and the total RNA was recovered using RNeasy Fibrous Mini Kit (Qiagen). cDNA was synthesized from the total RNA using PrimeScript RT reagent Kit (Takara) and subjected to quantitative PCR (qPCR). […]

MuRF-1 gene = assay: quantitative PCR of MuRF-1 gene in muscle of Colon26 tumor-bearing mice, intravenous PC; format: in vivo, mouse; settings: 3 mg/kg via the tail vein every 3 or 4 days, day 36 post-transplantation
Description: as §2, §3, §4, §5

Atrogin-1 gene = assay: quantitative PCR of Atrogin-1 gene in muscle of Colon26 tumor-bearing mice, intravenous PC; format: in vivo, mouse; settings: 3 mg/kg via the tail vein every 3 or 4 days, day 36 post-transplantation
Description: as §2, §3, §4, §5

[2] = tested on: tumor-bearing mice (Colon26); assay: survival rate of Colon26 tumor-bearing mice, intravenous PC; format: in vivo; settings: 3 mg/kg via the tail vein every 3 or 4 days; compared with solvent (PBS) group
Description: (§6) Mice were transplanted with Colon26 cells in the same manner as in Example 3, and one week later, divided into three groups: a non-cancer cell transplantation group (control), a cancer cell transplantation group with administration of a solvent (PBS, n = 20), and a cancer cell transplantation group with administration of PC (PC, n = 20). PC and a solvent (PBS) were administered by the same dosing schedule as that in Example 3. During the dosing period, the general conditions of the mice were observed every day. The survival rate was calculated by counting the number of dead individuals. The surviving mice were euthanized on day 36 post-transplantation of Colon26 cells, and the epididymal fat tissue was harvested to measure the weight (groups of n = 8 each). Total RNA was recovered from less than 100 mg of the epididymal fat tissue, and cDNA was synthesized and subjected to qPCR in the same manner as in Example 3 (groups of n = 2 each). The reagents and devices were the same as those used in Example 3. The primer set shown below was used to detect the Leptin gene, which is known to have the function of maintaining fat tissue. The primer set for amplification of the mouse GAPDH gene was the same as that used in Example 3.

Leptin gene = assay: quantitative PCR of Leptin gene in epididymal fat tissue of Colon26 tumor-bearing mice, intravenous PC; format: in vivo, mouse; settings: 3 mg/kg via the tail vein every 3 or 4 days, day 36 post-transplantation
Description: as §6
Primer set for amplification of mouse Leptin gene: • sense 5'-[…]-3' (SEQ ID NO: 7), and • anti-sense 5'-GCCATCCAGGCTCTCTGG-3' (SEQ ID NO: 8).

[3] = tested on: tumor-bearing mice (Colon26); assay: weight of epididymal fat tissue in Colon26 tumor-bearing mice, intravenous PC; format: in vivo; settings: 3 mg/kg via the tail vein every 3 or 4 days; day 36 post-transplantation
Description: as §6

IL-6 = IL-6 levels in culture supernatant of colon cancer cells (Colon26) treated with PC or PS (ELISA); format: cell-based, mouse; settings: 16:0 PC or 18:0 PC 25 µM, PS 100 µg/ml, 24 hours; then 48 hours in serum-free RPMI
Description: Colon26 cells were seeded at a concentration of 5 × 10^4 cells/cm^2 in the medium used in Example 1 in a culture dish with a diameter of 10 mm, and cultured at 37°C, 5% CO2 to 80% to 90% confluency. To the culture dish, 16:0 PC or 18:0 PC was added at a final concentration of 25 µM, and PS (Larodan) was added at a final concentration of 100 µg/ml. The cells were cultured for 24 hours. After the cells were washed with PBS, the medium was changed to serum-free RPMI medium (Wako), and the cells were cultured for another 48 hours. The medium was collected and centrifuged at 4°C and 3000 rpm for 20 minutes to precipitate the cellular components. The supernatant was filtered through a 0.22 µm sterile filter to remove precipitates from the supernatant. The […] IL-6 level in the supernatant was measured using LEGEND MAX Mouse IL-6 ELISA Kit (BioLegend).

For CCCCCCCCCCCCCCCC(=O)OCC(O)COP(=O)([O-])OCC[N+](C)(C)C (stereo not drawn) [16:0 LPC, 16:0 lysophosphatidylcholine], the myotube formation (myoblasts (C2C12)) was “myotube formation was observed” and the “adipocyte differentiation (Oil Red O)” value (Mesenchymal OP9 cells) was “inhibition of adipocyte differentiation was prevented”.

For CCCCCCCCCCCCCCCCCC(=O)OCC(O)COP(=O)([O-])OCC[N+](C)(C)C (stereo not drawn) [18:0 LPC], the myotube formation (myoblasts (C2C12)) was “myotube formation was observed”.

For Hydrogenated PC, the “weight of the gastrocnemius muscle (Gastrocnemius)” value [1] was “muscle weight loss was not observed”, the “weight of the tibialis muscle (Tibialis)” value [1] was “muscle weight loss was not observed” and the “expression of the MuRF-1 gene” value (MuRF-1 gene) was “comparable to that in normal mice”. For the same molecule, the “expression of the Atrogin-1 gene” value (Atrogin-1 gene) was “comparable to that in normal mice”, the survival rate [2] was “improved” and the “expression of the Leptin gene” value (Leptin gene) was “comparable to that in normal mice”. For the same molecule, the “weight of the epididymal fat tissue” value [3] was “weight loss in the fat tissue was not observed”.

For phosphatidylserine [PS], the “IL-6 levels in the culture supernatant of Colon26 cells” value (from here on “IL-6 levels in the culture supernatant”) (IL-6) was “direct inhibitory effect on the expression of IL-6 in cancer cells”.

In the case of CCCCCCCCCCCCCCCCCC(=O)OCC(COP(=O)([O-])OCC[N+](C)(C)C)OC(=O)CCCCCCCCCCCCCCCCC (stereo not drawn) [18:0 PC], the myotube formation (myoblasts (C2C12)) is reported as “myotube formation was observed” and the “IL-6 levels in the culture supernatant” value (IL-6) is reported as “direct inhibitory effect on the expression of IL-6 in cancer cells”.

In the case of CCCCCCCCCCCCCCCC(=O)OCC(COP(=O)([O-])OCC[N+](C)(C)C)OC(=O)CCCCCCCCCCCCCCC (stereo not drawn) [16:0 PC, 16:0 phosphatidylcholine], the myotube formation (myoblasts (C2C12)) is reported as “myotube formation was observed” and the “IL-6 levels in the culture supernatant” value (IL-6) is reported as “direct inhibitory effect on the expression of IL-6 in cancer cells”.
